ChEMBL document CHEMBL3046031, “Comparison of Acaricidal, Insecticidal, and Nerve Activities of Halfenprox (MTI-732) and Related Compounds” (1996)
Calls of active or inactive are those of the source. No cut-off for these calls is given here.

Assays:
Type in all cases: functional
Periplaneta americana = experiment: Insecticidal activity against Periplaneta americana (American cockroach) assessed as paralysis/mortality compound injected into abdomen after 24 hr
Spodoptera litura [1] = experiment: Insecticidal activity against third-instar larvae of Spodoptera litura infested compound-treated cabbage leaf assessed as mortality after 48 hr
Spodoptera litura [2] = experiment: Insecticidal activity against third-instar larvae of Spodoptera litura infested compound-treated cabbage leaf assessed as mortality after 48 hr in presence of piperonyl butoxide
Procambarus clarkii = experiment: Induction of depolarization in Procambarus clarkii (crayfish) giant axons assessed as transient inward sodium currents at -100 to -20 mV holding potential at 2 x 10 '-5 M
Nerve cord = experiment: Induction of repetitive firing in excised nerve cord of Periplaneta americana (American cockroach) measured up to 32 min
Tetranychus urticae [3] = experiment: Acaricidal activity against Tetranychus urticae (two-spotted spider mite) infested kidney bean leaf disk assessed as mortality measured after 48 hr
Tetranychus urticae [4] = experiment: Ratio of etofenprox LC50 to compound LC50 for Tetranychus urticae (two-spotted spider mite) infested kidney bean leaf disk

Row | Compound | log(1/MLD) (Periplaneta americana) | log(1/LC50) (Spodoptera litura [1]) | log(1/MLD) (Spodoptera litura [2]) | Activity (Procambarus clarkii) | log(1/MEC) (Nerve cord) | log(1/LC50) (Tetranychus urticae [3]) | RatioLC50 (Tetranychus urticae [4])
1 | CC(C)(COCc1cccc(Oc2ccccc2)c1)c1ccc(OC(F)(F)F)cc1 | 9.64 | 5.36 | 9.75 | Active | 7.45 | 5.14 | –
2 | CC(C)(COCc1cccc(Oc2ccccc2)c1)c1ccc(OC(F)F)cc1 | 9.03 | 4.7 | 9.52 | Active | 7.73 | 3.75 | –
3 | CC(C)(COCc1cccc(Oc2ccccc2)c1)c1ccc(OC(F)(F)Cl)cc1 | 9.55 | 4.96 | 9.75 | Active | 6.14 | 5.34 | –
4 | CC(C)(COCc1cccc(Oc2ccccc2)c1)c1ccc(OC(F)(F)Br)cc1 [halfenprox] | 9.67 | 4.83 | 9.77 | Active | 6.57 | 5.77 | 200
5 | CCOc1ccc(C(C)(C)COCc2cccc(Oc3ccccc3)c2)cc1 [ETOFENPROX] | 9.49 | 4.68 | 9.79 | Active | 8 | 3.48 | –
